This note sets out measurements from ChEMBL document CHEMBL5727262, “Tricyclic compound and JAK inhibitor” (2019).

The target of assay [1] is Tyrosine-protein kinase JAK2 (Homo sapiens, UniProt O60674). The assay can be described thus: (§1) Enzyme Assay: The JAK inhibitory activities of compounds of the present invention were measured.The enzymes (JAK1, JAK2, JAK3 and Tyk2) were purchased from Carna Biosciences, Inc.As the substrate for the enzymes (hereinafter referred to as the substrate), LANCE Ultra ULight-JAK-1 (Tyr1023) Peptide (manufactured by PerkinElmer Co., Ltd.) was used.As the antibody for detecting phosphorylation of the substrate, LANCE Ultra Europium-anti-phospho tyrosine antibody (PT66) (manufactured by PerkinElmer Co., Ltd.) was used.The other reagents are purchased from the following suppliers.Adenosine triphosphate (ATP): Sigma-Aldrich4-(2-Hydroxyethyl)-1-piperazineethanesulfonic acid (HEPES): DOJINDO LABORATORIESGlycol ether diamine tetraacetic acid (EGTA): DOJINDO LABORATORIESMagnesium chloride (MgCl2): Wako Pure Chemical Industries, Ltd.Dithiothreitol (DTT): Wako Pure Chemical Industries, Ltd.Tween 20: Sigma-AldrichEthylenediaminetetraacetic acid (EDTA): DOJINDO LABORATORIESThe compounds of the present invention, the enzymes (JAK1, JAK2, JAK3 and Tyk2), the substrate and ATP were used for the assays after diluted with the assay buffer.The composition of the assay buffer is given below.HEPES (pH7.5): 50 mMEGTA: 1 mMMgCl2: 10 mMDTT: 2 mMTween 20: 0.01% (wt/wt)Dilutions were made at such concentrations and dispensed on a well plate, which will be described later, in such volumes that the following final concentrations would be achieved on the well plate. A general note: TR-FRET usually uses a lanthanide donor and a delayed reading to cut background.
Sequence of Tyrosine-protein kinase JAK2 (O60674 whole entry): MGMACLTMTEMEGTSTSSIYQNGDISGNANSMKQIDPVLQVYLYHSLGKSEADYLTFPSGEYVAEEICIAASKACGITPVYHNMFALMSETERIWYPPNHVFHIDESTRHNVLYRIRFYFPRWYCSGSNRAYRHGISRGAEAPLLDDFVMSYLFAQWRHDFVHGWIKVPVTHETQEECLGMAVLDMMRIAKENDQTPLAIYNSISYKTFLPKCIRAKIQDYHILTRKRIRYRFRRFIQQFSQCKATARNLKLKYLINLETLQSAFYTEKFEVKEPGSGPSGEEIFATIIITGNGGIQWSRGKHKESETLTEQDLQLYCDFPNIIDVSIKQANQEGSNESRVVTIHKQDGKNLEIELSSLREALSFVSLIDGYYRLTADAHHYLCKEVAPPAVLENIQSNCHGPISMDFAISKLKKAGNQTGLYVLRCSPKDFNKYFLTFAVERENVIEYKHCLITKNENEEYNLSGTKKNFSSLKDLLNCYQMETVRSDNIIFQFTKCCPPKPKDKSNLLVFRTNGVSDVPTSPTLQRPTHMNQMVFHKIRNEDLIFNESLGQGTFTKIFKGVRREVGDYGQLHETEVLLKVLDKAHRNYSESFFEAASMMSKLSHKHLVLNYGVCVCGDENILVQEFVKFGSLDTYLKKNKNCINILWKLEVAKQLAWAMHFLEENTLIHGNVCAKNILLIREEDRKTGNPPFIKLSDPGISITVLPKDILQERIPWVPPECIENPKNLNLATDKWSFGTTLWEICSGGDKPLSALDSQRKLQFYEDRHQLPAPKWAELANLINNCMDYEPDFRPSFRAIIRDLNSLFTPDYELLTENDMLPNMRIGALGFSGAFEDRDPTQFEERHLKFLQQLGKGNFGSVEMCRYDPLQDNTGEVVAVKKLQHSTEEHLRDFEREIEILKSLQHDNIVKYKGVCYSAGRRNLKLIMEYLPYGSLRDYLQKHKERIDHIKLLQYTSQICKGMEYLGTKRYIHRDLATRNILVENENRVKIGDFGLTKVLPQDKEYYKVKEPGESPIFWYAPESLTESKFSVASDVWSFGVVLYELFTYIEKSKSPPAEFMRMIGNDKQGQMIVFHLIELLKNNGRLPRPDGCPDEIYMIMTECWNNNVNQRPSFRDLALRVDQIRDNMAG

Assay [2] addresses T1, Tyrosine-protein kinase JAK3 (Homo sapiens, UniProt P52333).
T1 sequence (P52333 whole entry): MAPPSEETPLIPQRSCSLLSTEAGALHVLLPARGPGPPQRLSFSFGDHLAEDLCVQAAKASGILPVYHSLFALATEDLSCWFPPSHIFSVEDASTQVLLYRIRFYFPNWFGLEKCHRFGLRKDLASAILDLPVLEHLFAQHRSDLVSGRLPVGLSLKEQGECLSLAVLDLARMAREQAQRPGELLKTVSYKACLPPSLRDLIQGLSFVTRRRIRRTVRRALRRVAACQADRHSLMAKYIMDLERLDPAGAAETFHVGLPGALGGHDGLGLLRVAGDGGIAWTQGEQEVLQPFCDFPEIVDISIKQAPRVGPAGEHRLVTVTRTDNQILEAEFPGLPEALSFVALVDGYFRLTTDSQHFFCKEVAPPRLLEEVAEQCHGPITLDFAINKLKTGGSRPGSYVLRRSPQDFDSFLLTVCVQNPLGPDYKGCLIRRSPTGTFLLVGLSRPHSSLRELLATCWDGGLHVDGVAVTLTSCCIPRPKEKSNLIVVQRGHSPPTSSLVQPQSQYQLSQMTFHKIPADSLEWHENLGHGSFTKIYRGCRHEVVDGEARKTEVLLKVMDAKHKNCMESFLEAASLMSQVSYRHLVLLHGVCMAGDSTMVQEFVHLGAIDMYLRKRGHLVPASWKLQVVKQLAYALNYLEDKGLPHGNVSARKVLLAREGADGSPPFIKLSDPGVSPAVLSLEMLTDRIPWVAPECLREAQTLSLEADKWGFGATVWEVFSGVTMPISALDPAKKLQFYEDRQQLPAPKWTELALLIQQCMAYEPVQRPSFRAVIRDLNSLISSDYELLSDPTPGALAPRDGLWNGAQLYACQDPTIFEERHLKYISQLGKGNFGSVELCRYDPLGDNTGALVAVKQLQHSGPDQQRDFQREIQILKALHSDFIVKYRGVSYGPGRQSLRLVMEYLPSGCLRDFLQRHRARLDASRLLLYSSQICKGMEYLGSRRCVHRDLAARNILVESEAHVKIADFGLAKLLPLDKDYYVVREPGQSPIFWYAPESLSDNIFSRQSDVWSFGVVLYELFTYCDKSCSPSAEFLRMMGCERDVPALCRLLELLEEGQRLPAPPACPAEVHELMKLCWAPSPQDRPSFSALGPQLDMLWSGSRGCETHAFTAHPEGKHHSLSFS
The description is as §1, with “plate. The enzyme concentrations and the ATP concentrations in the respective enzyme (JAK1, JAK2, JAK3 and Tyk2) assays were as follows.JAK1 enzyme assay; the enzyme concentration was 0.5 μg/mL, and the ATP concentration was 70 μM.JAK2 enzyme assay; the enzyme concentration was 0.013 μg/mL, and the ATP concentration was 10 μM.JAK3 enzyme assay; the enzyme concentration was 0.020 μg/mL, and the ATP concentration was 3 μM.Tyk2 enzyme assay; the enzyme concentration was 0.25 μg/mL and the ATP concentration was 20 μM.The concentration of the substrate for the enzymes was 25 nM.The concentration of EDTA was 15 mM.The concentration of PT66 was 2 nM.” for “plate.”.

The target of assay [3] is Non-receptor tyrosine-protein kinase TYK2 (Homo sapiens, UniProt P29597). The description is as above.
Sequence of Non-receptor tyrosine-protein kinase TYK2 (P29597 whole entry): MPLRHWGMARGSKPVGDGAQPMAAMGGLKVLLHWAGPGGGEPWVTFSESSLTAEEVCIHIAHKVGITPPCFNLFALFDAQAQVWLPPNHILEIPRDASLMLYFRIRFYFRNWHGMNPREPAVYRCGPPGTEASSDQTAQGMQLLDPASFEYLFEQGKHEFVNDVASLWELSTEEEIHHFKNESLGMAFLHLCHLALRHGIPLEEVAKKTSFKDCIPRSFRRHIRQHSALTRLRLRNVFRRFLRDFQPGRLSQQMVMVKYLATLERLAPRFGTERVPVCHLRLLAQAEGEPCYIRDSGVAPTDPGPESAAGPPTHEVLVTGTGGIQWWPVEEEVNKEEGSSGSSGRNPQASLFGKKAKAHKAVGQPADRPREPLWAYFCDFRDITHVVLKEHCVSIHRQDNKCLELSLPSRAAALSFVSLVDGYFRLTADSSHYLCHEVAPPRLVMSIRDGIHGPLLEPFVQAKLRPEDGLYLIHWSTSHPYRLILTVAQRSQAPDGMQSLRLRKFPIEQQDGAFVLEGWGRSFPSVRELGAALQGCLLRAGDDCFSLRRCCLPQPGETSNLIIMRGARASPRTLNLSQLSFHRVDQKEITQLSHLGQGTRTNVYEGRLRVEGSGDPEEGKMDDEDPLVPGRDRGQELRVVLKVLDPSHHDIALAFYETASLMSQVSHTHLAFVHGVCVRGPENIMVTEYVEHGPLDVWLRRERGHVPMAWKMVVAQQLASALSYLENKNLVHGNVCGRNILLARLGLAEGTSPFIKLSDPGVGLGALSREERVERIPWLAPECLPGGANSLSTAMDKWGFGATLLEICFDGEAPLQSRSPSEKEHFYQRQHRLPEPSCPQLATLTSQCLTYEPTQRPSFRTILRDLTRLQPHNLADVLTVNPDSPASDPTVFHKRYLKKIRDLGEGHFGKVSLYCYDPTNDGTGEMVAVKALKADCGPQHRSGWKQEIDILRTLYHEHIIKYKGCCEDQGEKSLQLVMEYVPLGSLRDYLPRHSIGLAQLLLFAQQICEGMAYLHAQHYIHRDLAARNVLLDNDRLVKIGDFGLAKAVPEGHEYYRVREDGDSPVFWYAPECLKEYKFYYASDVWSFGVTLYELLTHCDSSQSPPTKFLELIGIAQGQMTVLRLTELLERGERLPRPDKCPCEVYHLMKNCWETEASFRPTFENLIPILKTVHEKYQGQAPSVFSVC
The target of assay [4] is Tyrosine-protein kinase JAK1 (Homo sapiens, UniProt P23458). Described as above.
Sequence of Tyrosine-protein kinase JAK1 (P23458 whole entry): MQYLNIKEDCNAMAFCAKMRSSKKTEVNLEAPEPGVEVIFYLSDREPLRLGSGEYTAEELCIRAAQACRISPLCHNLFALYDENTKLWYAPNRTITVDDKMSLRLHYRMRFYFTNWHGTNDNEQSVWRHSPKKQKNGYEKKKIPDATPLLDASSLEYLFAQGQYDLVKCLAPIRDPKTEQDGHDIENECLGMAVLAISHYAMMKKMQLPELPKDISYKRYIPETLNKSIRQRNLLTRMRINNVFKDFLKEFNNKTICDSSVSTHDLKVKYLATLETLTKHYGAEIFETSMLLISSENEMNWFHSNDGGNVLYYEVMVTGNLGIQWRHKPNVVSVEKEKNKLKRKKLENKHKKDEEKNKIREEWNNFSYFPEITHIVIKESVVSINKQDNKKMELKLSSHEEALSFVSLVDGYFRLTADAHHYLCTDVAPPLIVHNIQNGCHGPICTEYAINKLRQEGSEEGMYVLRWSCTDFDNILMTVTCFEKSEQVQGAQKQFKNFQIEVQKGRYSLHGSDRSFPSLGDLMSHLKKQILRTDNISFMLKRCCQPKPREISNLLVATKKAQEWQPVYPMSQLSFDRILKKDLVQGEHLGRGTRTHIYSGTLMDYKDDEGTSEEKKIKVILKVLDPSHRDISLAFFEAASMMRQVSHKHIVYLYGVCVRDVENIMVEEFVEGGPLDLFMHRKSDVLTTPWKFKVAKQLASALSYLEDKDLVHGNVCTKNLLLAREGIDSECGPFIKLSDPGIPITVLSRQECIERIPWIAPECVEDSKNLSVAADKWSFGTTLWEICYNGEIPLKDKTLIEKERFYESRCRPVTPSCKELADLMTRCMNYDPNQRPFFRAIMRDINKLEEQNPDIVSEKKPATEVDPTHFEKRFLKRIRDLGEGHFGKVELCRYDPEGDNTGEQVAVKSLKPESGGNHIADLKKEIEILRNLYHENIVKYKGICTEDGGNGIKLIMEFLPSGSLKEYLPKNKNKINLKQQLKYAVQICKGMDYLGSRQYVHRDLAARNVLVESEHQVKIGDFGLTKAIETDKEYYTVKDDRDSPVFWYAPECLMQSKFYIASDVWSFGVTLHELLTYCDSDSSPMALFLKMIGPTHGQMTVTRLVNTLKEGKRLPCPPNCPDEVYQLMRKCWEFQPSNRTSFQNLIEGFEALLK

As for `O=C1NC(=O)[C@@H](C2CCC(COCCC(F)(F)F)CC2)C2c3cc[nH]c3N=CC12` (stereo partly drawn), the half-inhibitory concentration (IC50) in assay [1] worked out at 1.5 nM; in assay [2] it was 2.9 nM; in assay [3] it was 26 nM; in assay [4], 0.35 nM.
The matching figures for `N#CC[C@@H](NCC1CCC(N2C=CC(=O)C3C=Nc4[nH]ccc4C32)CC1)C(F)(F)F` (stereo partly drawn): 5.1 nM, 10 nM, 18 nM and 1.7 nM.
For `N#CC[C@H](OCC1CCC(N2C=CC(=O)C3C=Nc4[nH]ccc4C32)CC1)C(F)(F)F` (stereo partly drawn), the 50% inhibitory concentration (IC50) in assay [1] worked out at 2 nM; in assay [2], 5.1 nM; in assay [3] it was 11 nM; in assay [4], 0.74 nM.
The matching figures for `O=C1C=CN(C2CCC(COCCC(F)(F)F)CC2)C2c3cc[nH]c3N=CC12` (stereo not drawn): 1.6 nM, 2.5 nM, 19 nM and 0.68 nM.
Take `O=C1C=CN(C2CCC(COCC(F)(F)F)CC2)C2c3cc[nH]c3N=CC12` (stereo not drawn): the values for the IC50 in assay [2], in assay [3] and in assay [4] were 2.7 nM, 10 nM and 0.59 nM, respectively.
In the case of `Cc1cnn(CC2CCC(N3C=CC(=O)C4C=Nc5[nH]ccc5C43)CC2)c1` (stereo not drawn), the IC50 worked out at 1.9 nM in assay [1], 7.1 nM in assay [2], 39 nM in assay [3] and 0.41 nM in assay [4].

One may read the IC50 as the concentration at which inhibition is half-maximal. A lower IC50 goes with greater potency in that assay.
